According to patent US12036282B2, “Liposomal system for drug delivery” (NewSouth Innovations PTY Limited, priority 2017, dated 2024):
{FAM} = fluorescein (FAM) label

Test: Agarose gel electrophoresis of oligonucleotide after X-ray exposure
Type: physicochemical
Conditions: X-ray 1, 2 and 4 Gy, compared with the control
Experimental: The PC12, HCT116 and CCD 841 CoN cells (1-4×10^4/mL) were, respectively, grown on 96-well plates in a culture medium with 10% FBS for 24 hr. For liposome and LipoDox treatment experiments, the PC12 cells and CCD 841 CoN cells were, respectively, incubated with different liposome and LipoDox samples for 4 hours, followed by incubation in a fresh medium for further 24 hours. For the X-ray exposure experiments, all three types of cells were radiated with 4 Gy, followed by incubation in a fresh medium for further 24 and 48 hours. Cell viability was assessed by using the same method as described above. For X-ray treatment of pure DNA molecules and mixture of DNA and verteporfin, 50 μL of antisense oligonucleotide solution (10 μg/mL) and 50 μL of mixture solution (10 μg/mL DNA and 32 μg/mL verteporfin) was respectively exposed to X-ray radiation with different dosage (1, 2 and 4 Gy). After treatment, the gel electrophoresis was carried out in 1.2% agarose gel in Tris-acetate-EDTA (TAE) buffer at 95 V for 45 min. The gel was stained with SYBR Safe DNA Gel Stain (Thermo Fisher) and photographed under UV light using a Bio-Rad imaging system.

5′-TGGTGCTTCCCAGCCACTAT-3′ (SEQ ID NO:1) (3' {FAM}, sugars by position and backbone not given here) [DNA molecules, antisense oligonucleotide against PAC1R gene, 10 μg/mL solution exposed to X-ray]
damage to oligonucleotide after X-ray radiation (gel electrophoresis): did not cause obvious damage
